Test results reported in patent US9656962B2, “Ring-contracted morphinans and the use thereof” (Purdue Pharma L.P., priority 2013, dated 2017).

Key:
Assay type in all cases: biochemical
μ-opioid receptor [1] = target: T1, μ-opioid receptor (Homo sapiens (Human), UniProt P35372); assay: μ-opioid receptor [35S]GTPγS functional assay, U-2 OS cells (Table 5); settings: for Emax: relative to DAMGO; for EC50: μ GTP
Description: (§1) μ-Opioid Receptor Functional Assay Procedures: [^35S]GTPγS functional assays were conducted using freshly thawed μ-receptor membranes prepared in-house from a cell line expressing recombinant μ opioid receptor in a HEK-293, CHO or U-2 OS cell background, or purchased from a commercial source (Perkin Elmer, Shelton, Conn.; or DiscovRx, Fremont, Calif.). Assay reactions were prepared by sequentially adding the following reagents to binding buffer (100 mM NaCl, 10 mM MgCl2, 20 mM HEPES, pH 7.4) on ice (final concentrations indicated): membrane protein (0.026 mg/mL), saponin ([…]), GDP ([…]) and [^35S]GTPγS (0.20 nM; Perkin Elmer, Shelton, Conn.). The prepared membrane solution (190 μl/well) was transferred to 96-shallow well polypropylene plates containing 10 μl of 20× concentrated stock solutions of the agonist [D-Ala^2, N-methyl-Phe^4 Gly-ol^5]-enkephalin (DAMGO) prepared in dimethyl sulfoxide (DMSO). Plates were incubated for 30 min at about 25° C. with shaking Reactions were terminated by rapid filtration onto 96-well Unifilter GF/B filter plates (Perkin Elmer, Shelton, Conn.) using a 96-well tissue harvester (Perkin Elmer, Shelton, Conn.) followed by three filtration washes with 200 μl of ice-cold wash buffer (10 mM NaH2PO4, 10 mM Na2HPO4, pH 7.4). Filter plates were subsequently dried at 50° C. for 2-3 hours. BetaScint scintillation cocktail (Perkin Elmer, Shelton, Conn.) was added (50 μl/well) and plates were counted using a Packard Top-Count for 1 min/well. Data were analyzed using the sigmoidal dose-response curve fitting functions in GraphPad PRISM v. 3.0, or an in-house function for non-linear, sigmoidal dose-response curve-fitting. [^35S]GTPγS functional assays can also be conducted using freshly thawed μ-receptor membranes prepared from a cell line expressing recombinant μ opioid receptor in a CHO-K1 cell background.
μ GTP Emax (%) is the maximal effect elicited by a compound relative to the effect elicited by DAMGO, a standard μ agonist.

κ-opioid receptor = κ-opioid receptor (Homo sapiens (Human), UniProt P41145); assay: κ-opioid receptor [35S]GTPγS functional assay, U-2 OS cells (Table 5); settings: for Emax: relative to U69,593; for EC50: κ GTP
Description: κ-Opioid Receptor Functional Assay Procedures: Functional [^35S]GTPγS binding assays were conducted as follows. κ opioid receptor membrane solution was prepared by sequentially adding final concentrations of 0.026 μg/μl κ membrane protein (in-house), 10 μg/mL saponin, 3 μM GDP and 0.20 nM [^35S]GTPγS to binding buffer (100 mM NaCl, 10 mM MgCl2, 20 mM HEPES, pH 7.4) on ice. The prepared membrane solution (190 μl/well) was transferred to 96-shallow well polypropylene plates containing 10 μl of 20× concentrated stock solutions of agonist prepared in DMSO. Plates were incubated for 30 min at a temperature of about 25° C. with shaking. Reactions were terminated by rapid filtration onto 96-well Unifilter GF/B filter plates (Perkin Elmer, Shelton, Conn.) using a 96-well tissue harvester (Packard) and followed by three filtration washes with 200 μl ice-cold binding buffer (10 mM NaH2PO4, 10 mM Na2HPO4, pH 7.4). Filter plates were subsequently dried at 50° C. for 2-3 hours. Fifty μl/well scintillation cocktail (Perkin Elmer, Shelton, Conn.) was added and plates were counted in a Packard Top-Count for 1 min/well.
κ GTP Emax (%) is the maximal effect elicited by a compound relative to the effect elicited by U69,593.
The following TABLE 5 provides results on the activity response of certain Compounds of the Invention at the μ- and κ-opioid receptors determined as described above using U-2 OS cells.

μ-opioid receptor [2] = target: T1, μ-opioid receptor; assay: μ-opioid receptor [35S]GTPγS functional assay, HEK-293 cells (Table 6); settings: for Emax: relative to DAMGO; for EC50: μ GTP
Description: as §1
μ GTP Emax (%) is the maximal effect elicited by a compound relative to the effect elicited by DAMGO, a standard μ agonist. Generally, the μ GTP Emax (%) value measures the efficacy of a compound to treat or prevent pain or other Conditions.
The following TABLE 6 provides results on the activity response of certain Compounds of the Invention at the μ- and κ-opioid receptors determined as described above using HEK-293 cells.

| SMILES | Emax (μ-opioid receptor [2]) [%] | EC50 (μ-opioid receptor [2]) [µM] | other results |
| --- | --- | --- | --- |
| CN(C)C(=O)[C@@H]1C[C@]23CCN(CC4CC4)[C@H](Cc4ccc(O)cc42)[C@]3(O)C1 [Compound 62, (2R,3aS,4R,9bS)-12-(cyclopropylmethyl)-3a,8-dihydroxy-N,N-dimethyl-1,2,3,3a,4,5-hexahydro-4,9b-(epiminoethano)cyclo-penta[a]naphthalene-2-carboxamide] |  |  | Emax (μ-opioid receptor [1]): 25 ± 0.58%; EC50 (μ-opioid receptor [1]): 0.017 ± 0.00331 µM; Emax (κ-opioid receptor): 109 ± 3.67%; EC50 (κ-opioid receptor): 23.6 ± 1.09 nM |
| COc1ccc2c(c1)[C@]13CCN(CC4CC4)[C@H](C2)[C@]1(O)C[C@@H](C#N)C3 [Compound 26, (2S,3aS,4R,9bS)-12-(cyclopropylmethyl)-3a-hydroxy-8-methoxy-1,2,3,3a,4,5-hexahydro-4,9b-(epiminoethano)-cyclopenta[a]naphthalene-2-carbonitrile] |  |  | Emax (μ-opioid receptor [1]): 63 ± 5.77%; EC50 (μ-opioid receptor [1]): 1.13 ± 0.117 µM; Emax (κ-opioid receptor): 106 ± 2.03%; EC50 (κ-opioid receptor): 829 ± 100 nM |
| NC(=O)[C@@H]1C[C@]23CCN(CC(F)(F)F)[C@H](Cc4ccc(O)cc42)[C@]3(O)C1 [Compound 75, (2R,3aS,4R,9bS)-3a,8-dihydroxy-12-(2,2,2-tritluoroethyl)-1,2,3,3a,4,5-hexahydro-4,9b-(epiminoethano)cyclo-penta[a]naphthalene-2-carboxamide] |  |  | Emax (μ-opioid receptor [1]): 2%; EC50 (μ-opioid receptor [1]; bound given in μM): > 20 µM; Emax (κ-opioid receptor): 69 ± 6.03%; EC50 (κ-opioid receptor): 1260 ± 74.6 nM |
| CC(C)CNC(=O)[C@@H]1C[C@]23CCN(CC4CC4)[C@H](Cc4ccc(O)cc42)[C@]3(O)C1 [Compound 35, (2R,3aS,4R,9bS)-12-(cyclopropylmethyl)-3a,8-dihydroxy-N-isobutyl-1,2,3,3a,4,5-hexahydro-4,9b-(epiminoethano)cyclo-penta[a]naphthalene-2-carboxamide] |  |  | Emax (μ-opioid receptor [1]): 29.7 ± 0.33%; EC50 (μ-opioid receptor [1]): 0.0197 ± 0.00527 µM; Emax (κ-opioid receptor): 111 ± 2.96%; EC50 (κ-opioid receptor): 7.75 ± 0.41 nM |
| O=C(NCc1cccc(O)c1)[C@@H]1C[C@]23CCN(CC4CC4)[C@H](Cc4ccc(O)cc42)[C@]3(O)C1 [Compound 142, (2R,3aS,4R,9bS)-12-(cyclopropylmethyl)-3a,8-dihydroxy-N-(3-hydroxybenzyl)-1,2,3,3a,4,5-hexahydro-4,9b-(epimino-ethano)cyclopenta[a]naphthalene-2-carboxamide] | 0 |  | EC50 (μ-opioid receptor [2]; bound given in μM): > 20 µM |
| O=C(NCCc1ccc(Cl)c(Cl)c1)[C@@H]1C[C@]23CCN(CC4CC4)[C@H](Cc4ccc(O)cc42)[C@]3(O)C1 [Compound 131, (2R,3aS,4R,9bS)-12-(cyclopropylmethyl)-N-(3,4-dichlorophenethyl)-3a,8-dihydroxy-1,2,3,3a,4,5-hexahydro-4,9b-(epiminoethano)cyclopenta[a]naphthalene-2-carboxamide] | 1 |  | EC50 (μ-opioid receptor [2]; bound given in μM): > 20 µM |
| O=C(NCc1ccc(O)c(Cl)c1)[C@@H]1C[C@]23CCN(CC4CC4)[C@H](Cc4ccc(O)cc42)[C@]3(O)C1 [Compound 128, (2R,3aS,4R,9bS)-N-(3-chloro-4-hydroxybenzyl)-12-(cyclopropylmethyl)-3a,8-dihydroxy-1,2,3,3a,4,5-hexahydro-4,9b-(epiminoethano)cyclopenta-[a]naphthalene-2-carboxamide] | -1 |  | EC50 (μ-opioid receptor [2]; bound given in μM): > 20 µM |
| Cc1ccc(CNC(=O)[C@@H]2C[C@]34CCN(CC5CC5)[C@H](Cc5ccc(C#N)cc53)[C@]4(O)C2)cc1 [Compound 120, (2R,3aS,4R,9bS)-8-cyano-12-(cyclopropylmethyl)-3a-hydroxy-N-(4-methylbenzyl)-1,2,3,3a,4,5-hexahydro-4,9b-(epiminoethano)cyclopenta-[a]naphthalene-2-carboxamide] | 22.7 ± 1.92 | 0.631 ± 0.152 |  |
| CN1CC[C@]23C[C@H](C(=O)NCCO)C[C@@]2(O)[C@H]1Cc1ccc(O)cc13 [Compound 115, (2S,3aS,4R,9bS)-3a,8-dihydroxy-N-(2-hydroxyethyl)-12-methyl-1,2,3,3a,4,5-hexahydro-4,9b-(epiminoethano)cyclo-penta[a]naphthalene-2-carboxamide] | 35 ± 1.14 | 0.917 ± 0.131 |  |
| CN1CC[C@]23C[C@@H](C(=O)NCc4ccc(Cl)c(Cl)c4)C[C@@]2(O)[C@H]1Cc1ccc(O)cc13 [Compound 99, (2R,3aS,4R,9bS)-N-(3,4-dichlorobenzyl)-3a,8-dihydroxy-12-methyl-1,2,3,3a,4,5-hexahydro-4,9b-(epiminoethano)-cyclopenta[a]naphthalene-2-carboxamide] | 73.3 ± 1.2 | 0.244 ± 0.0295 |  |
| O=C([C@H]1C[C@]23CCN(CC4CC4)[C@H](Cc4ccc(O)cc42)[C@]3(O)C1)N1CCN(c2ccccc2)CC1 [Compound 96, ((2S,3aS,4R,9bS)-12-(cyclopropylmethyl)-3a,8-dihydroxy-1,2,3,3a,4,5-hexahydro-4,9b-(epiminoethano)cyclopenta-[a]naphthalen-2-yl)(4-phenylpiperazin-1-yl)methanone] | 14.2 ± 2.5 | 0.0144 ± 0.00255 |  |
| N#Cc1ccc2c(c1)[C@]13CCN(CC4CC4)[C@H](C2)[C@]1(O)C[C@H](C(=O)NCCN1CCOCC1)C3 [Compound 122, (2R,3aS,4R,9bS)-8-cyano-12-(cyclopropylmethyl)-3a-hydroxy-N-(2-morpholinoethyl)-1,2,3,3a,4,5-hexahydro-4,9b-(epiminoethano)cyclopenta-[a]naphthalene-2-carboxamide] | 0.33 ± 0.67 |  | EC50 (μ-opioid receptor [2]; bound given in μM): > 20 µM |
| CN1CC[C@]23C[C@H](C(=O)NCc4ccc(Cl)cc4Cl)C[C@@]2(O)[C@H]1Cc1ccc(O)cc13 [Compound 107, (2S,3aS,4R,9bS)-N-(2,4-dichlorobenzyl)-3a,8-dihydroxy-12-methyl-1,2,3,3a,4,5-hexahydro-4,9b-(epiminoethano)cyclo-penta[a]naphthalene-2-carboxamide] | 94.7 ± 0.33 | 0.0108 ± 0.00083 |  |
| CN1CC[C@]23C[C@@H](NC(=O)c4ccccc4)C[C@@]2(O)[C@H]1Cc1ccc(O)cc13 [Compound 110, N-((2R,3aS,4R,9bR)-3a,8-dihydroxy-12-methyl-1,2,3,3a,4,5-hexahydro-4,9b-(epiminoethano)cyclopenta[a]naphthalen-2-yl)benzamide] | 35.2 ± 0.76 | 8.41 ± 0.956 |  |
| NC(=O)c1ccc2c(c1)[C@]13CCN(CC4CC4)[C@H](C2)[C@]1(O)C[C@@H](C(=O)NCCN1CCOCC1)C3 [Compound 119, (2S,3aS,4R,9bS)-12-(cyclopropylmethyl)-3a-hydroxy-N^2-(2-morpholinoethyl)-1,2,3,3a,4,5-hexahydro-4,9b-(epimino-ethano)cyclopenta[a]naphthalene-2,8-dicarboxamide] | 18.4 ± 1.55 | 0.0134 ± 0.00419 |  |
| N#Cc1ccc2c(c1)[C@]13CCN(CC4CC4)[C@H](C2)[C@]1(O)C[C@@H](C(=O)NCCN1CCOCC1)C3 [Compound 123, (2S,3aS,4R,9bS)-8-cyano-12-(cyclopropylmethyl)-3a-hydroxy-N-(2-morpholinoethyl)-1,2,3,3a,4,5-hexahydro-4,9b-(epiminoethano)cyclopenta-[a]naphthalene-2-carboxamide] | 10.5 ± 1.07 | 2.92 ± 0.378 |  |
| CC(C)N1CCN(C(=O)[C@@H]2C[C@]34CCN(CC5CC5)[C@H](Cc5ccc(O)cc53)[C@]4(O)C2)CC1 [Compound 132, ((2R,3aS,4R,9bS)-12-(cyclopropylmethyl)-3a,8-dihydroxy-1,2,3,3a,4,5-hexahydro-4,9b-(epiminoethano)cyclopenta-[a]naphthalen-2-yl)(4-isopropylpiperazin-1-yl)methanone] | -1 |  | EC50 (μ-opioid receptor [2]; bound given in μM): > 20 µM |
